According to the kinase profiling compilation of Christmann-Franck et al. (2016):

Key:
Assay in all cases: KINOMEscan competition binding
Conditions in all cases: compound 10.0 µM
TNNI3K (human) = TNNI3K (human) (UniProt Q59H18)
INSR (human) = INSR (human) (UniProt P06213)
[1] = test system: EGFR (human), P00533 [G719S]
MYO3B (human) = MYO3B (human) (UniProt Q8WXR4)
CIT (human) = CIT (human) (UniProt O14578)
STK38L (human) = STK38L (human) (UniProt Q9Y2H1)
LYN (human) = LYN (human) (UniProt P07948)
CSK (human) = CSK (human) (UniProt P41240)
MAP3K3 (human) = MAP3K3 (human) (UniProt Q99759)
[2] = test system: ABL1 (human), P00519 [Y253F]
[3] = test system: ABL1 (human), P00519 [F317L]
FGFR2 (human) = FGFR2 (human) (UniProt P21802)
Chain of FGFR2 (human) (P21802 whole entry, looked up): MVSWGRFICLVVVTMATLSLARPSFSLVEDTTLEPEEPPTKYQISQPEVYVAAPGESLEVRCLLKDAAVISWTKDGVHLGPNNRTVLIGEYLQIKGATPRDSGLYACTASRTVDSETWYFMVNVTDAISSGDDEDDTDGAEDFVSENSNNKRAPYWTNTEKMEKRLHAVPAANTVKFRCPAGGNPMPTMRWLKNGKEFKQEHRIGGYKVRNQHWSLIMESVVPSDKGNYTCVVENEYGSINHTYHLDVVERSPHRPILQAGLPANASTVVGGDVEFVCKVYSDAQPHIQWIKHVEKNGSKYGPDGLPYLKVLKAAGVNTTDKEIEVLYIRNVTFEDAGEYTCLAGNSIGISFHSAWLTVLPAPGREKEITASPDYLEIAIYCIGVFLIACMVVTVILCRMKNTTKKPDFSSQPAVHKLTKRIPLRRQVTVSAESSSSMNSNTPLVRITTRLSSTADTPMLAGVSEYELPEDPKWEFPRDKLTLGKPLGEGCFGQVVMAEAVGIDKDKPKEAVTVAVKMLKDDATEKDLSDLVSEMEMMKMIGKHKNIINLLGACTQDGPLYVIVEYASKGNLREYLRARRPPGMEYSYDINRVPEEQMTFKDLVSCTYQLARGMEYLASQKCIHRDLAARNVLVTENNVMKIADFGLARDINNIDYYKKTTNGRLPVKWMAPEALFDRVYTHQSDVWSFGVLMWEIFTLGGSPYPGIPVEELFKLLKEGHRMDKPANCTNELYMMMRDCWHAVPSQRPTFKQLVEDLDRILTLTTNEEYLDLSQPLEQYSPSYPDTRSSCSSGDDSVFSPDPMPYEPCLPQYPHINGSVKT

STK36 (human) = STK36 (human) (UniProt Q9NRP7)
TEK (human) = TEK (human) (UniProt Q02763)
CDK19 (human) = CDK19 (human) (UniProt Q9BWU1)
[4] = test system: EGFR (human), P00533 [P753S; 747-752 del]
HCK (human) = HCK (human) (UniProt P08631)
FLT1 (human) = FLT1 (human) (UniProt P17948)
EPHA8 (human) = EPHA8 (human) (UniProt P29322)
ALK (human) = ALK (human) (UniProt Q9UM73)
[5] = test system: KIT (human), P10721 [V559D/V654A]
MYLK2 (human) = MYLK2 (human) (UniProt Q9H1R3)
DDR2 (human) = DDR2 (human) (UniProt Q16832)
PRKACB (human) = PRKACB (human) (UniProt P22694)
KDR (human) = KDR (human) (UniProt P35968)
Chain of KDR (human) (P35968 whole entry, looked up): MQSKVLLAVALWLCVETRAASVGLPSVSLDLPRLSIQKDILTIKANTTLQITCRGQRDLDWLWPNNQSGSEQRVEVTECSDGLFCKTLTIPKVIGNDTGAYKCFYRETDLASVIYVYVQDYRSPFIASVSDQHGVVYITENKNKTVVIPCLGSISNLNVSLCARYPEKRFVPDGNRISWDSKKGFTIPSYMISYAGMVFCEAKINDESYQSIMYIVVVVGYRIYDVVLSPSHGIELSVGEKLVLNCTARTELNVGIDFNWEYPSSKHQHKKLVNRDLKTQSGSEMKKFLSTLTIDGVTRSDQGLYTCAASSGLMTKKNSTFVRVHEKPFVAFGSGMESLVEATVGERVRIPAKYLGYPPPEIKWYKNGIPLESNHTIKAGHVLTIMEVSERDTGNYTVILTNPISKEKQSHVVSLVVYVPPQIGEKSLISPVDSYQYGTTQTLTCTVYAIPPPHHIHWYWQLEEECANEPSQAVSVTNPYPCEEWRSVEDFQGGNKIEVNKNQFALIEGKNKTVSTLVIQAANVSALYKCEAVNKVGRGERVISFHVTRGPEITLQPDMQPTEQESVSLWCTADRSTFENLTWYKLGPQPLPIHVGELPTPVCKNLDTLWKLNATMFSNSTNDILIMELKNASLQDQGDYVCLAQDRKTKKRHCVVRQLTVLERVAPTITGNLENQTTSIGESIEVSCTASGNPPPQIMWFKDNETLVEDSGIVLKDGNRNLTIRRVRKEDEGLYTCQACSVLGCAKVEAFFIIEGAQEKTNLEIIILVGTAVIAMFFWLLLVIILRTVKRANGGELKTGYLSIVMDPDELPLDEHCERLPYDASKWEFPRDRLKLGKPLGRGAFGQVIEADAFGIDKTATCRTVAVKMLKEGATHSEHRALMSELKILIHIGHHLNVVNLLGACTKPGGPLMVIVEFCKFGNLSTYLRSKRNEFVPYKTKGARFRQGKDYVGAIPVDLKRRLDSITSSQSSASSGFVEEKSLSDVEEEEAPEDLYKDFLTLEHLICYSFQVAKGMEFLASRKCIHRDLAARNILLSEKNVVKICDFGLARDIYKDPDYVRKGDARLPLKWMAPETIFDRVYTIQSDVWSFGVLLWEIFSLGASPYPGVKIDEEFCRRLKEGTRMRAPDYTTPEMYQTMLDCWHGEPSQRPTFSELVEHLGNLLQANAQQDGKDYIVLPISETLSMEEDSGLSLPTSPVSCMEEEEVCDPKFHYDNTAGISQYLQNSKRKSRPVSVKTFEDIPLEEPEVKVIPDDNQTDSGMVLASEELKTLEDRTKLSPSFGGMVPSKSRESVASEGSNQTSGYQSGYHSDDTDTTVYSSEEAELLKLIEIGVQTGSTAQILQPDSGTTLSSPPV

LATS2 (human) = LATS2 (human) (UniProt Q9NRM7)
NTRK3 (human) = NTRK3 (human) (UniProt Q16288)
FLT3 (human) = FLT3 (human) (UniProt P36888)
FER (human) = FER (human) (UniProt P16591)
Chain of FER (human) (P16591 whole entry, looked up): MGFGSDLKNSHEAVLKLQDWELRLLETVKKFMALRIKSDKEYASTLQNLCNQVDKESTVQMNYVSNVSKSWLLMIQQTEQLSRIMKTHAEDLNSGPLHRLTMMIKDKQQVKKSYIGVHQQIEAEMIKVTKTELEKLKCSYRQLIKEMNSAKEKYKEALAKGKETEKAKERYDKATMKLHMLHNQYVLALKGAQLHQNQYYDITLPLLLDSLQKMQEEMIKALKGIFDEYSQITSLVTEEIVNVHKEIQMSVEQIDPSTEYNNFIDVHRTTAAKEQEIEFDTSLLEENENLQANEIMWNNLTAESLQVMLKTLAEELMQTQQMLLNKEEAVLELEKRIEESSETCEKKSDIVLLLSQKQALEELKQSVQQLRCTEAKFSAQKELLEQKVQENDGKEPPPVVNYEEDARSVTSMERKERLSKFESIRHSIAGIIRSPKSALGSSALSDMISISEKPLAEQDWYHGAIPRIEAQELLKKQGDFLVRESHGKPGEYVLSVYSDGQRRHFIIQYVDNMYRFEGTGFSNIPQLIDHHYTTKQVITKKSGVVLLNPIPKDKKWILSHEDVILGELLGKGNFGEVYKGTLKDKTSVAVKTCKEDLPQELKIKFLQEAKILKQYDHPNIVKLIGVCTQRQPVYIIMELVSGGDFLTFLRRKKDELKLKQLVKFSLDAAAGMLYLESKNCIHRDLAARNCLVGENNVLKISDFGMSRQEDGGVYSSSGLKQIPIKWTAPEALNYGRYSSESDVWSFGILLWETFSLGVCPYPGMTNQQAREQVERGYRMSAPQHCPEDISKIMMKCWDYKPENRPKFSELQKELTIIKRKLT

RIPK1 (human) = RIPK1 (human) (UniProt Q13546)
Chain of RIPK1 (human) (Q13546 whole entry, looked up): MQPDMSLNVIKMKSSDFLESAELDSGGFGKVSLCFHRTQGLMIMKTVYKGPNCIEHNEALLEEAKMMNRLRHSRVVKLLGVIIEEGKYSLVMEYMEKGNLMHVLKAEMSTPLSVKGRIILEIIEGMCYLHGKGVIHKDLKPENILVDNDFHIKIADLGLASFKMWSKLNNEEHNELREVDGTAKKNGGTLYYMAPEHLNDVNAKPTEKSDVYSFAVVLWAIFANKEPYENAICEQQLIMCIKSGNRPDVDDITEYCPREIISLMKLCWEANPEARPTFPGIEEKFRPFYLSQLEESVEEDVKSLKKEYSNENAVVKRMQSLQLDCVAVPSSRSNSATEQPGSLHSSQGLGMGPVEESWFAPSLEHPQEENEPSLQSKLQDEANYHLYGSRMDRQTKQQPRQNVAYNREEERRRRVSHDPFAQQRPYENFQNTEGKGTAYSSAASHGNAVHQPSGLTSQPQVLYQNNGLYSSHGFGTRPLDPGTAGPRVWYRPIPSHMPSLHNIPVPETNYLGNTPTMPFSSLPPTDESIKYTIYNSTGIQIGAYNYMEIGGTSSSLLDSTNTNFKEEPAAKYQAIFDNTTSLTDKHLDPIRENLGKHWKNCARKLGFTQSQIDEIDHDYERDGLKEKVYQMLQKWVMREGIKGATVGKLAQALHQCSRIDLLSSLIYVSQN

[6] = target: JAK2 JH1 catalytic (human) (UniProt O60674)
[7] = test system: EGFR (human), P00533 [746-750 del]
MAPK10 (human) = MAPK10 (human) (UniProt P53779)
Chain of MAPK10 (human) (P53779 whole entry, looked up): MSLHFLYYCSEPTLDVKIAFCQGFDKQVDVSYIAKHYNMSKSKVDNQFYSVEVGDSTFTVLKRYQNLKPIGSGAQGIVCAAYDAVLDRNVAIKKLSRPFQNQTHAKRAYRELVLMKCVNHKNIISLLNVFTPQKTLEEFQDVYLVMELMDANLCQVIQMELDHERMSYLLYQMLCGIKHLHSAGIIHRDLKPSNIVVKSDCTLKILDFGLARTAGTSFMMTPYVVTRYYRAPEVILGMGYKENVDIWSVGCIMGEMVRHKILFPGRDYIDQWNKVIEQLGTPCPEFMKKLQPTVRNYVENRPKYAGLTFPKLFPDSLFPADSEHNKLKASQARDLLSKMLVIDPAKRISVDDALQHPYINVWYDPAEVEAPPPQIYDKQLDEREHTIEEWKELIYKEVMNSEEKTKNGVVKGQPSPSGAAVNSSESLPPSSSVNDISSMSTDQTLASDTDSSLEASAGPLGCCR

MAPK9 (human) = MAPK9 (human) (UniProt P45984)
CDC2L2 (human) = CDC2L2 (human) (UniProt Q9UQ88)
CAMKK2 (human) = CAMKK2 (human) (UniProt Q96RR4)
CAMK1G (human) = CAMK1G (human) (UniProt Q96NX5)
[8] = target: JAK3 JH1 catalytic (human) (UniProt P52333)
CDK2 (human) = CDK2 (human) (UniProt P24941)
YES1 (human) = YES1 (human) (UniProt P07947)
CDK5 (human) = CDK5 (human) (UniProt Q00535)

Chain of TNNI3K (human) (Q59H18 whole entry, looked up): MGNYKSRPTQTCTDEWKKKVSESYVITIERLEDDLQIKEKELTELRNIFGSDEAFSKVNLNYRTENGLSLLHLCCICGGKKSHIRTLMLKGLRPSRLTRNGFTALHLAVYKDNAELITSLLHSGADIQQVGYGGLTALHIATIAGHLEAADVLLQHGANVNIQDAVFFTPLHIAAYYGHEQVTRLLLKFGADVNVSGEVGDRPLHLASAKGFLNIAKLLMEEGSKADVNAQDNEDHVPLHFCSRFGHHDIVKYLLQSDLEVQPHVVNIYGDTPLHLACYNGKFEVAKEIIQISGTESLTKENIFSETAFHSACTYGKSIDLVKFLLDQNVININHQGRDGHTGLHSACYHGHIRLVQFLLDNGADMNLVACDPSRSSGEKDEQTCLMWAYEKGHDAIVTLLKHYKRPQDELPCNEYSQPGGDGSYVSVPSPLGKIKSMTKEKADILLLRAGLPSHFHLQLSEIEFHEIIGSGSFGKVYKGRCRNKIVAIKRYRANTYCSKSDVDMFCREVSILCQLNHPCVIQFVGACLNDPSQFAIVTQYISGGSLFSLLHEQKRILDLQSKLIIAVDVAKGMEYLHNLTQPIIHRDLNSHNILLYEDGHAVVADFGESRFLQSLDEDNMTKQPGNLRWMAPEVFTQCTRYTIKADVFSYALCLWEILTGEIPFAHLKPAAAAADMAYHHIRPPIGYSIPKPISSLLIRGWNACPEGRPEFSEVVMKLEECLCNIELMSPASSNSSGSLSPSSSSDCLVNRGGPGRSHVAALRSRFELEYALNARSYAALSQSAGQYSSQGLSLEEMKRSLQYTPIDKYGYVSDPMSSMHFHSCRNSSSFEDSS

kinase still bound, per cent of control (TNNI3K (human)): 4.8% | kinase still bound, per cent of control (INSR (human)): 30% | kinase still bound, per cent of control [1]: 14% | kinase still bound, per cent of control (MYO3B (human)): 4.8% | kinase still bound, per cent of control (CIT (human)): 0.1% | kinase still bound, per cent of control (STK38L (human)): 6.8% | kinase still bound, per cent of control (LYN (human)): 0.75% | kinase still bound, per cent of control (CSK (human)): 0.45% | kinase still bound, per cent of control (MAP3K3 (human)): 12% | kinase still bound, per cent of control [2]: 1.1% | kinase still bound, per cent of control [3]: 0.1% | kinase still bound, per cent of control (FGFR2 (human)): 1.4% | kinase still bound, per cent of control (STK36 (human)): 0.2% | kinase still bound, per cent of control (TEK (human)): 0% | residual activity (CDK19 (human)): 0.1% | kinase still bound, per cent of control [4]: 1.2% | kinase still bound, per cent of control (HCK (human)): 0.4% | kinase still bound, per cent of control (FLT1 (human)): 1.6% | kinase still bound, per cent of control (EPHA8 (human)): 0.1% | kinase still bound, per cent of control (ALK (human)): 0.55% | kinase still bound, per cent of control [5]: 2.7% | kinase still bound, per cent of control (MYLK2 (human)): 8.4% | kinase still bound, per cent of control (DDR2 (human)): 5.1% | residual activity (PRKACB (human)): 14% | kinase still bound, per cent of control (KDR (human)): 1.5% | kinase still bound, per cent of control (LATS2 (human)): 13% | kinase still bound, per cent of control (NTRK3 (human)): 3.8% | kinase still bound, per cent of control (FLT3 (human)): 0.15% | kinase still bound, per cent of control (FER (human)): 0.5% | kinase still bound, per cent of control (RIPK1 (human)): 0% | kinase still bound, per cent of control [6]: 11% | kinase still bound, per cent of control [7]: 8.4% | kinase still bound, per cent of control (MAPK10 (human)): 12% | kinase still bound, per cent of control (MAPK9 (human)): 0% | residual activity (CDC2L2 (human)): 0.05% | kinase still bound, per cent of control (CAMKK2 (human)): 28% | kinase still bound, per cent of control (CAMK1G (human)): 20% | kinase still bound, per cent of control [8]: 2.4% | residual activity (CDK2 (human)): 11% | kinase still bound, per cent of control (YES1 (human)): 1.6% | residual activity (CDK5 (human)): 19%
SMILES: CCN1CCN(Cc2ccc(NC(=O)c3ccc(C)c(Oc4ccnc5[nH]ccc45)c3)cc2C(F)(F)F)CC1
